Data published in US7799809B2, “Carboxamide compounds and their use as calpain inhibitors” (Abbott GmbH & Co. KG, priority 2006, dated 2010).

Assays:
cathepsin S = target: T1, cathepsin S (Homo sapiens, UniProt P25774); test: Cathepsin S enzyme inhibition in vitro (kinetic fluorescence assay); assay type: biochemical; conditions: recombinant human cathepsin S vs calpain I
T1 construct: purchased Calbiochem 219343; host or cells: E. coli
Experimental: (§1) The following solutions and buffers were employed: • HBS (for 40 ml): 800 μl M HEPES; 2.16 ml 100 mM KCl; 4.8 ml 1M NaCl; 3.59 ml 5% glucose; 60 μl μM MgSO4; 400 μl 100 mM Na pyruvate, 28.19 ml water; pH 7.2-7.5. • lysis buffer (for 20 ml): 400 μl M Tris pH 8.2; 2.74 ml 1M NaCl; 520 μl 0.5M EDTA; 2 ml 10% triton X-100; 0.8 ml (=1:25) CompletePlus (1 tablet/2 ml H2O); 200 μl 100 mM Pefabloc; 13.34 ml water, pH 8.2. • TBST (10×) (for 1 l): 100 mM Tris (12.1 g); 1.5M NaCl (87 g); 1% Tween 20 (10 g), adjusted to pH 8. I Enzyme Inhibition In Vitro: • Testing for blockade of the corresponding enzymic activities was carried out by means of kinetic fluorescence assays (excitation 390 nm, emission 460 nm). • Apparent Ki values were calculated from the experimentally determined IC50 values by the Cheng-Prussoff relation assuming a reversible competitive enzyme inhibition. The Km values of the substrates used under the assay conditions indicated above were: 90 μM (Z-Phe-Arg-AMC, cathepsin B), 10 μM (Z-Gly-Pro-Arg-AMC, cathepsin K), 2 μM (Z-Phe-Arg-AMC, cathepsin L), and 30 μM (Z-Val-Val-Arg-AMC, cathepsin S). • The indicated Ki values are averages of the inhibition constants calculated on the basis of 2 to 4 independent dose-effect plots.
(§2) The following assays were used: • 1. Calpain I: • 20 nM calpain-I—isolated from human erythrocytes (Calbiochem #208713), 100 μM Suc-Leu-Tyr-AMC (Bachem #1-1355) as substrate in buffer with 62 mM imidazole, 0.3 mM CaCl2, 0.10% CHAPS, 0.05% BSA, 1 mM DTT at pH 7.3 and room temperature. • 2. Cathepsin B: • 0.25 nM cathepsin B—isolated from human liver (Calbiochem #219362), 100 μM Z-Phe-Arg-AMC (Bachem #I-1160) as substrate 50 mM MES, 2 mM EDTA, 0.05% Brij 35, 2.5 mM L-cysteine, pH 6.0, room temperature. • 3. Cathepsin K: • 3 nM cathepsin K—activated from recombinant human procathepsin K from E. coli (Calbiochem #342001), 10 μM Z-Gly-Pro-Arg-AMC (Biomol #P-142) as substrate in 50 mM MES, 2 mM EDTA, 0.05% Brij 35, 2.5 mM L-cysteine, pH 6.0, room temperature. • 4. Cathepsin L: • 1 nM cathepsin L—isolated from human liver (Calbiochem #219402), 2 μM Z-Phe-Arg-AMC (Bachem #1-1160) as substrate in 50 mM MES, 2 mM EDTA, 0.05% Brij 35, 2.5 mM L-cysteine, pH 6.0, room temperature. • 5. Cathepsin S: • 0.5 nM recombinant human cathepsin S from E. coli (Calbiochem #219343), 20 μM Z-Val-Val-Arg-AMC (Bachem #1-1540) as substrate in 50 mM MES, 2 mM EDTA, 0.05% Brij 35, 2.5 mM L-cysteine, pH 6.0, room temperature. • The results of the in vitro determination are indicated in Table 1. The following abbreviations are used in Table 1: • The “Calpain activity” column, ++ stands for a calpain Ki (Ki(calpain)) of ≦40 nM and + means: 40 nM<Ki(Calpain)≦100 nM. • The “Sel. cat. B” column indicates the Ki(cathepsin B)/Ki(calpain) ratio. In this connection, ++ means a Ki(cathepsin B)/Ki(calpain) ratio of ≧30 and + means 10≦Ki(cathepsin B)/Ki(calpain)<30. • The “Sel. cat. K” column indicates the Ki(cathepsin K)/Ki(calpain) ratio. In this connection, ++ means a Ki(cathepsin K)/Ki(calpain) ratio of ≧30 and + means 10≦Ki(cathepsin K)/Ki(calpain)<30. • The “Sel. cat. L” column indicates the Ki(cathepsin L)/Ki(calpain) ratio. In this connection, ++ means a Ki(cathepsin L)/Ki(calpain) ratio of ≧50 and + means 30≦Ki(cathepsin L)/Ki(calpain)<50. • The “Sel. cat. S” column indicates the Ki(cathepsin S)/Ki(calpain) ratio. In this connection, ++ means a Ki(cathepsin S)/Ki(calpain) ratio of ≧100 and + means 50≦Ki(cathepsin S)/Ki(calpain)<100.

cathepsin L = target: T2, cathepsin L (Homo sapiens, UniProt P07711); test: Cathepsin L enzyme inhibition in vitro (kinetic fluorescence assay); assay type: biochemical; conditions: cathepsin L isolated from human liver vs calpain I
T2 construct: cathepsin L—isolated from human liver (Calbiochem #219402); purchased Calbiochem 219402; host or cells: human liver (tissue-derived)
Experimental: as §1, §2

T1 sequence (P25774 115-331): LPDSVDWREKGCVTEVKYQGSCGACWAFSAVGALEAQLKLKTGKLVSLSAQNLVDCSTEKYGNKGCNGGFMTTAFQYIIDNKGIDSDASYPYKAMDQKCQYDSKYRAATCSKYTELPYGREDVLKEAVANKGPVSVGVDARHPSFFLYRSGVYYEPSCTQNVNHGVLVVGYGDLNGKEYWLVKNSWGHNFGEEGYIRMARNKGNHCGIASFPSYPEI
T2 sequence (P07711 114-333): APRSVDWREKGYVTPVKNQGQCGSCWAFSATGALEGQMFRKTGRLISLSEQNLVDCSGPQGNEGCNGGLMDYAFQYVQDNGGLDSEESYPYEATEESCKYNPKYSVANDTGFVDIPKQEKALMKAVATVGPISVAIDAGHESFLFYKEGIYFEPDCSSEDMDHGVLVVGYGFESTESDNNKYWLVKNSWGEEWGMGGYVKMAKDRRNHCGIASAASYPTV

Row | Compound | Sel cat. S: Ki(cathepsin S)/Ki(calpain) ratio (cathepsin S) | Sel cat. L: Ki(cathepsin L)/Ki(calpain) ratio (cathepsin L)
1 | NC(=O)C(=O)C(Cc1ccccc1)NC(=O)c1cccnc1-n1cnc(-c2ccc(Cl)cc2)c1 (centres unmarked) [Example 9, N-(3-Amino-1-benzyl-2,3-dioxopropyl)-2-[4-(4-chlorophenyl)-1H-imidazol-1-yl]nicotinamide] | ++ (++ means a Ki(cathepsin S)/Ki(calpain) ratio of ≧100) | + (+ means 30≦Ki(cathepsin L)/Ki(calpain)<50)
2 | COc1ccc(-c2cn(-c3ncccc3C(=O)NC(Cc3ccccc3)C(=O)C(N)=O)cn2)cc1 (centres unmarked) [Example 13, N-(3-Amino-1-benzyl-2,3-dioxopropyl)-2-[4-(4-methoxyphenyl)-1H-imidazol-1-yl]nicotinamide] | + (+ means 50≦Ki(cathepsin S)/Ki(calpain)<100) | ++ (++ means a Ki(cathepsin L)/Ki(calpain) ratio of ≧50)
3 | CCCCC(NC(=O)c1cccnc1-n1cnc(-c2ccc(N3CCOCC3)cc2)c1)C(=O)C(N)=O.Cl (centres unmarked) [Example 15, N-{1-[Amino(oxo)acetyl]pentyl}-2-[4-(4-morpholin-4-ylphenyl)-1H-imidazol-1-yl]nicotinamide hydrochloride] | + (+ means 50≦Ki(cathepsin S)/Ki(calpain)<100) | ++ (++ means a Ki(cathepsin L)/Ki(calpain) ratio of ≧50)
4 | CCCCC(NC(=O)c1cccnc1-n1cnc(-c2ccc(C(F)(F)F)cc2)c1)C(=O)C(N)=O.Cl (centres unmarked) [Example 17, N-{1-[Amino(oxo)acetyl]pentyl}-2-{4-[4-(trifluoromethyl)phenyl]-1H-imidazol-1-yl}nicotinamide hydrochloride] | + (+ means 50≦Ki(cathepsin S)/Ki(calpain)<100) | ++ (++ means a Ki(cathepsin L)/Ki(calpain) ratio of ≧50)
5 | Cl.NC(=O)C(=O)C(Cc1ccccc1)NC(=O)c1cccnc1-n1cnc(-c2ccc(C(F)(F)F)cc2)c1 (centres unmarked) [Example 18, N-(3-Amino-1-benzyl-2,3-dioxopropyl)-2-{4-[4-(trifluoromethyl)phenyl]-1H-imidazol-1-yl}nicotinamide hydrochloride] | ++ (++ means a Ki(cathepsin S)/Ki(calpain) ratio of ≧100) | + (+ means 30≦Ki(cathepsin L)/Ki(calpain)<50)
6 | NC(=O)C(=O)C(Cc1ccccc1)NC(=O)c1cccnc1-n1ccc(-c2ccc(Cl)cc2)n1 (centres unmarked) [Example 39, N-(3-Amino-1-benzyl-2,3-dioxopropyl)-2-[3-(4-chlorophenyl)-1H-pyrazol-1-yl]nicotinamide] | ++ (++ means a Ki(cathepsin S)/Ki(calpain) ratio of ≧100) | ++ (++ means a Ki(cathepsin L)/Ki(calpain) ratio of ≧50)
7 | CCCCC(NC(=O)c1cccnc1-n1ccc(-c2ccc(OC)cc2)n1)C(=O)C(N)=O (centres unmarked) [Example 49, N-{1-[Amino(oxo)acetyl]pentyl}-2-[3-(4-methoxyphenyl)-1H-pyrazol-1-yl]nicotinamide] | ++ (++ means a Ki(cathepsin S)/Ki(calpain) ratio of ≧100) | + (+ means 30≦Ki(cathepsin L)/Ki(calpain)<50)
8 | NC(=O)C(=O)C(Cc1cccs1)NC(=O)c1cccnc1-n1ccc(-c2ccc(F)cc2)n1 (centres unmarked) [Example 57, N-[3-Amino-2,3-dioxo-1-(2-thienylmethyl)propyl]-2-[3-(4-fluorophenyl)-1H-pyrazol-1-yl]nicotinamide] | ++ (++ means a Ki(cathepsin S)/Ki(calpain) ratio of ≧100) | ++ (++ means a Ki(cathepsin L)/Ki(calpain) ratio of ≧50)
9 | CCCCC(NC(=O)c1cccnc1-n1ccc(-c2cccc(N3CCOCC3)c2)n1)C(=O)C(N)=O (centres unmarked) [Example 59, N-{1-[Amino(oxo)acetyl]pentyl}-2-[3-(3-morpholin-4-ylphenyl)-1H-pyrazol-1-yl]nicotinamide] | + (+ means 50≦Ki(cathepsin S)/Ki(calpain)<100) | ++ (++ means a Ki(cathepsin L)/Ki(calpain) ratio of ≧50)
10 | N#Cc1ccc(-c2ccn(-c3ncccc3C(=O)NC(Cc3ccccc3)C(=O)C(N)=O)n2)cc1 (centres unmarked) [Example 62, N-(3-Amino-1-benzyl-2,3-dioxopropyl)-2-[3-(4-cyanophenyl)-1H-pyrazol-1-yl]nicotinamide] | ++ (++ means a Ki(cathepsin S)/Ki(calpain) ratio of ≧100) | ++ (++ means a Ki(cathepsin L)/Ki(calpain) ratio of ≧50)
11 | NC(=O)C(=O)C(Cc1ccccc1)NC(=O)c1cccnc1-n1cc2ccccc2n1 (centres unmarked) [Example 78, N-(3-Amino-1-benzyl-2,3-dioxopropyl)-2-(2H-indazol-2-yl)nicotinamide] | + (+ means 50≦Ki(cathepsin S)/Ki(calpain)<100) | ++ (++ means a Ki(cathepsin L)/Ki(calpain) ratio of ≧50)
12 | NC(=O)C(=O)C(Cc1ccccc1)NC(=O)c1ccccc1-n1ccc(-c2ccccc2)n1 (centres unmarked) [Example 106, N-[3-Amino-2,3-dioxo-1-(phenylmethyl)propyl]-2-(3-phenyl-1H-pyrazol-1-yl)benzamide] | ++ (++ means a Ki(cathepsin S)/Ki(calpain) ratio of ≧100) | + (+ means 30≦Ki(cathepsin L)/Ki(calpain)<50)
13 | NC(=O)C(=O)C(Cc1ccccc1)NC(=O)c1cccnc1-n1cc2c(n1)-c1ccccc1OCC2 (centres unmarked) [Example 141, N-[3-Amino-2,3-dioxo-1-(phenylmethyl)propyl]-2-(4,5-dihydro-2H-[1]benzoxepino[5,4-c]pyrazol-2-yl)pyridine-3-carboxamide] | ++ (++ means a Ki(cathepsin S)/Ki(calpain) ratio of ≧100) | ++ (++ means a Ki(cathepsin L)/Ki(calpain) ratio of ≧50)
14 | COCc1cn(-c2ncccc2C(=O)NC(Cc2ccccc2)C(=O)C(N)=O)nc1-c1ccc(F)cc1 (centres unmarked) [Example 170, N-[3-Amino-2,3-dioxo-1-(phenylmethyl)propyl]-2-{3-(4-fluorophenyl)-4-[(methyloxy)methyl]-1H-pyrazol-1-yl}pyridine-3-carboxamide] | – | + (+ means 30≦Ki(cathepsin L)/Ki(calpain)<50)
15 | NC(=O)C(=O)C(Cc1ccccc1)NC(=O)c1cccnc1-n1cc(COc2ccccc2)c(-c2ccc(F)cc2)n1 (centres unmarked) [Example 179, N-[3-Amino-2,3-dioxo-1-(phenylmethyl)propyl]-2-{3-(4-fluorophenyl)-4-[(phenyloxy)methyl]-1H-pyrazol-1-yl}pyridine-3-carboxamide] | ++ (++ means a Ki(cathepsin S)/Ki(calpain) ratio of ≧100) | + (+ means 30≦Ki(cathepsin L)/Ki(calpain)<50)
